Assay results reported in patent publication US20030224485A1, “Expression system for ABC transporters” (priority 2002, published 2003).
Blank lines part the entries; values can stand above or below the compound they belong to.

Key:
[1] = target: T1, full-length ABCR (Homo sapiens, UniProt P78363); assay: 8-azido-ATP photoaffinity labeling of membranes from transfected cells; assay type: binding; set-up: Membranes from transfected cells expressing either full-length ABCR (lanes 1 & 2); expressed in transfected cells; host or cells: transfected cells (COS-1 or EBNA293); conditions: 1 mM ATP added prior to labeling with 1.5 μM 8-azido-[α-32P]ATP; FIG. 5A lane 2
Experimental: (§1) Preparation of Membranes—Membranes from transfected cells were prepared as described previously (Bungert, S., Molday, L. L., and Molday, R. S. (2001) J Biol Chem 276(26), 23539-46). In some experiments, the protocol was scaled down and the cell homogenate from one or two 10-cm dishes, after passing through a 26-gauge needle (6 times), was centrifuged on a discontinuous gradient consisting of 5% and 60% sucrose for 30 min at 30,000 rpm (60,000×g) in a TLS55 rotor (Beckman Optima TL ultracentrifuge).
(§2) 8-Azido-ATP Photoaffinity Labeling—Membranes (50-150 μg protein) in 50 μl of labeling buffer (20 mM Tris-HCl, pH 7.4, 140 mM NaCl, 5 mM MgCl2) were incubated with 1-4 μM 8-azido-[α-^32P]ATP (Perkin-Elmer Life Science; 20 Ci/mmol) on ice, with gentle shaking, under UV light (254 nm) for 10 min at a distance of 10 cm. Ice-cold 20 mM Tris-HCl, pH 7.4, was added and the membranes were collected by centrifugation (TLA45 rotor, 55000 g, 15 min). The membrane suspension (200 μl in TBS [Tris-HCl, pH 7.4, 140 mM NaCl]) was added to 200 μl of 2% Triton X-100 in TBS, pH 7.4). After 30 min on ice, the cleared extract was mixed with 25 μl antibody coupled to Sepharose 2B for 1-12 h at 4° C. The beads were washed 4 times in TBS containing 0.2% Triton X-100 and eluted twice, 30 μl each, in 4% SDS, 0.2% Triton X-100, TBS. […]

[2] = target: T2, co-expressed N and C halves of ABCR (Homo sapiens, UniProt P78363); assay: as above; assay type: binding; conditions: 1 mM ATP added prior to labeling with 1.5 μM 8-azido-[α-32P]ATP; FIG. 5A lane 4; C-half labeled
T2 construct: N-half (amino acids 1-1325) and C-half (amino acids 1326-2273) of ABCR; added initiator Met (ATG in the forward primer, read by me) (N); made in house; host or cells: COS-1 (co-transfection)
T2 sequence (P78363 1-1325): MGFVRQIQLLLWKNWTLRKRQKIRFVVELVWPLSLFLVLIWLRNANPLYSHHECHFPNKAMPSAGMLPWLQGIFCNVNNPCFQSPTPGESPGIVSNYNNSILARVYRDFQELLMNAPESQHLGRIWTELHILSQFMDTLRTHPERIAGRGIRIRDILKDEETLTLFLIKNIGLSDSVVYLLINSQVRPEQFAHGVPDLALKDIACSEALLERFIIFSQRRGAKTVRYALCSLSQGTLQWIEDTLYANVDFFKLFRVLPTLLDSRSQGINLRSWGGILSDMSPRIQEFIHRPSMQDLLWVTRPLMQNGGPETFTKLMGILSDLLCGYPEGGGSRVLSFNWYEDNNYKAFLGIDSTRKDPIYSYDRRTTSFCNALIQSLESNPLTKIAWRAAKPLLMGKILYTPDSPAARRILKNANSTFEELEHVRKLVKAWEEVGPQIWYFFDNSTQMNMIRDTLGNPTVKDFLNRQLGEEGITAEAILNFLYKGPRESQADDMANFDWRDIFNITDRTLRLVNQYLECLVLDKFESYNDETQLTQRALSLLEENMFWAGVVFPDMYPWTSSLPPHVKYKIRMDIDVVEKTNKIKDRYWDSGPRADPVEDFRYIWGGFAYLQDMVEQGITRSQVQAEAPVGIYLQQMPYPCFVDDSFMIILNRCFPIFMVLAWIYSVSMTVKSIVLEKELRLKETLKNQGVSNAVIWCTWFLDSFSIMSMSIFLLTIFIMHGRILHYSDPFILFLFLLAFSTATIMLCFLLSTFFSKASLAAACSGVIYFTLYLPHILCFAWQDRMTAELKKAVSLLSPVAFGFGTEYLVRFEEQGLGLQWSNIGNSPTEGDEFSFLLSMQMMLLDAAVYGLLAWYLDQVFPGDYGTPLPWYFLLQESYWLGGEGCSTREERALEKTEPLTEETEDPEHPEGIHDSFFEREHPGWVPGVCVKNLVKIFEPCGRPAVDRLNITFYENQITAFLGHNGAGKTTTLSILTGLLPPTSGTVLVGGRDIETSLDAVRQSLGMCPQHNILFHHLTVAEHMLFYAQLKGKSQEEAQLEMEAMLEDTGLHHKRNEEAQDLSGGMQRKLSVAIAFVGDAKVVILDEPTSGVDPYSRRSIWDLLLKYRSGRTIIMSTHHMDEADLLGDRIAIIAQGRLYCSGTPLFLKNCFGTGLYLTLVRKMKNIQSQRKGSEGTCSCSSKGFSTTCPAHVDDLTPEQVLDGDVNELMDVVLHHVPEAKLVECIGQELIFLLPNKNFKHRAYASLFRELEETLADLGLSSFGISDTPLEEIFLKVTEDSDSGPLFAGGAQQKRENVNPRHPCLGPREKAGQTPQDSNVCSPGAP
T2 sequence (P78363 1326-2273): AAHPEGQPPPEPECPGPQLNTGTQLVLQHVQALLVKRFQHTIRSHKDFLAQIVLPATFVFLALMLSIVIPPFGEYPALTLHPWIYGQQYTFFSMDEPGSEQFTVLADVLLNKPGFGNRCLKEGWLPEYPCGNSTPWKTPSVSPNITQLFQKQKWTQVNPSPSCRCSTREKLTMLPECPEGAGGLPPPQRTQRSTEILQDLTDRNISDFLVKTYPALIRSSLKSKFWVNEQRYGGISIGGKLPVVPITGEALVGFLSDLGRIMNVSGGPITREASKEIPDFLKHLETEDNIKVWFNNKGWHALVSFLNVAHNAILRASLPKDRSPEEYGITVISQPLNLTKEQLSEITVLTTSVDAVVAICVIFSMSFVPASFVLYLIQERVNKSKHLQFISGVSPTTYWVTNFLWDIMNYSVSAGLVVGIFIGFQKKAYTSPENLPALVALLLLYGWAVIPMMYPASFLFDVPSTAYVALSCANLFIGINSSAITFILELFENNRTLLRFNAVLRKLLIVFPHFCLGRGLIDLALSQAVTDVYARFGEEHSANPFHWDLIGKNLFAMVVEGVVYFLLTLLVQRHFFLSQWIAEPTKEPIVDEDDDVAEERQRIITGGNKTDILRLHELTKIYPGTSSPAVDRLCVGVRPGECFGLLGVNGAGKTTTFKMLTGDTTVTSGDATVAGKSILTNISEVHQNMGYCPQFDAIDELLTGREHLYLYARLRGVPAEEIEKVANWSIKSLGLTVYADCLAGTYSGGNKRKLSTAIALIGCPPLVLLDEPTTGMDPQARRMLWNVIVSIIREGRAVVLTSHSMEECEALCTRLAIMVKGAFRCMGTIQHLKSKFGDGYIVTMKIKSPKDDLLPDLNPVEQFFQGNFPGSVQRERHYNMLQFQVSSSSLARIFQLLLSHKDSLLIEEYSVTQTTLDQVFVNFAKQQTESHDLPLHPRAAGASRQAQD
Experimental: as §1, §2

[3] = target: T3, ABCR (Homo sapiens, UniProt P78363); assay: 8-azido-ATP/ADP trapping in membranes from transfected cells; assay type: binding; conditions: 5 μM 8-azido-[α-32P]ATP, 37° C.; 800 μM orthovanadate, 50 μM all-trans retinal, or 10 mM MgATP in wash step
T3 construct: Membranes from transfected cells expressing either full-length ABCR (lanes 1 & 2) or co-expressing the N and C halves; expressed in transfected cells; host or cells: transfected cells (COS-1 or EBNA293)
Experimental: 8-Azido-ATP Trapping—Membranes were incubated with 5 [M 8-azido-[α-^32P]ATP in 50 μl of labeling buffer with or without 800 μM sodium orthovanadate for 10 min at 37° C. All-trans retinal and 50 μM DTT were added where indicated. Binding was stopped by the addition of ice-cold 20 mM Tris-HCl, pH 7.4, the membranes were collected by centrifugation and washed one more time. Samples exposed to orthovanadate were washed in the presence of 800 μM orthovanadate. In some experiments MgATP (10 mM) was included in the wash step, but had no effect. The membranes were suspended in 30 μl of 20 mM Tris-HCl, pH 7.4, irradiated with UV light for 10 min on ice, diluted to 200 μl with TBS, pH 7.4, and solubilized as described above for azido-ATP binding.
To gain more insight into the properties of the NBD of ABCR, trapping experiments were carried out using 8-azido-[α^32P]ATP.

[4] = target: T1, full-length ABCR; assay: Retinal-stimulated ATPase activity of purified protein reconstituted in lipid vesicles; assay type: biochemical; set-up: Membranes from transfected cells expressing either full-length ABCR (lanes 1 & 2) or co-expressing the N and C halves; expressed in transfected cells; host or cells: transfected cells (COS-1 or EBNA293); conditions: expressed in COS-1 cells, purified on Rim 3F4 column, 50 μM [α32P]ATP
Experimental: Membranes (from two 10 cm dishes) were solubilized in 0.5 ml of 1% Triton-X100 in Buffer A (140 mM NaCl, 20 mM Tris-HCl, pH 7.4) for 20 min on ice. For ATPase assays, the membrane preparation step was omitted and the cell suspension was solubilized directly in Buffer B (10 mg/ml soybean phospholipids, 10% glycerol, 1 mM dithiothreitol, 100 mM NaCl, 3 mM MgCl2, 50 mM NaHEPES, pH 7.4) containing 18 mM CHAPS. The supernatant after a 10 min centrifugation at 40,000 rpm (TLA100.4 rotor) was mixed with 50 μl Rim3F4 Sepharose 2B for 1 h at 4° C. The beads were washed 6 times in Buffer A containing 0.2% Triton X-100 or Buffer B containing 10 mM CHAPS and eluted with 4% SDS (for electrophoresis) or 0.2 mg/ml Rim3F4 peptide (for reconstitution and determination of ATPase activity). […]
ATPase activity was measured as described previously (Ahn, J., Wong, J. T., and Molday, R. S. (2000) J Biol Chem 275(27), 20399-405) using 50 μM [α^32P]ATP and thin layer chromatography. The all-trans retinal concentration was determined spectrophotometrically (λ383 nm=42.88 mM^−1 cm^−1). […]
(§3) ATPase Activity of Expressed N and C Halves—The basal and retinal activated ATPase activity of full-length ABCR and the N and C halves individually or co-expressed in COS-1 cells was determined after immunoaffinity purification and reconstitution into lipid vesicles. […]

[5] = target: T2, co-expressed N and C halves of ABCR; assay: as above; assay type: biochemical; conditions: co-expressed in COS-1 cells, purified on Rim 3F4 column, 50 μM [α32P]ATP
Experimental: (§4) Membranes (from two 10 cm dishes) were solubilized in 0.5 ml of 1% Triton-X100 in Buffer A (140 mM NaCl, 20 mM Tris-HCl, pH 7.4) for 20 min on ice. For ATPase assays, the membrane preparation step was omitted and the cell suspension was solubilized directly in Buffer B (10 mg/ml soybean phospholipids, 10% glycerol, 1 mM dithiothreitol, 100 mM NaCl, 3 mM MgCl2, 50 mM NaHEPES, pH 7.4) containing 18 mM CHAPS. The supernatant after a 10 min centrifugation at 40,000 rpm (TLA100.4 rotor) was mixed with 50 μl Rim3F4 Sepharose 2B for 1 h at 4° C. The beads were washed 6 times in Buffer A containing 0.2% Triton X-100 or Buffer B containing 10 mM CHAPS and eluted with 4% SDS (for electrophoresis) or 0.2 mg/ml Rim3F4 peptide (for reconstitution and determination of ATPase activity). Purified protein (24 μl) was incubated with 6 μl of 50 mg/ml lipid (1:1 mixture of dioleoylphosphatidylethanolamine and brain polar lipid, by weight) and 3 μl n-octylglucoside for 30 min on ice. The mixture was diluted rapidly with 200 μl of Buffer C (1 mM dithiothreitol, 140 mM NaCl, 25 mM NaHEPES, pH 7.4) and passed through a 200 μl Extracti-gel column (Pierce). The flow-through containing the reconstituted protein was used for determination of ATPase activity.
(§5) ATPase activity was measured as described previously (Ahn, J., Wong, J. T., and Molday, R. S. (2000) J Biol Chem 275(27), 20399-405) using 50 μM [α^32P]ATP and thin layer chromatography. The all-trans retinal concentration was determined spectrophotometrically (λ383 nm=42.88 mM^−1 cm^−1). Protein concentration was estimated from the eluate before reconstitution by laser densitometry of Coomassie blue stained gels using bovine serum albumin as a standard. […] Direct protein measurements after reconstitution by densitometry of Western blots was about half of that in the eluate. […]
as §3

[6] = target: T4, individually expressed C half of ABCR (Homo sapiens, UniProt P78363); assay: as above; assay type: biochemical; conditions: individually expressed in COS-1 cells
T4 construct: N-half (amino acids 1-1325) and C-half (amino acids 1326-2273) of ABCR; added initiator Met (ATG in the forward primer, read by me) (N); made in house; host or cells: COS-1
T4 sequence (P78363 1326-2273): T2 sequence (P78363 1326-2273)
Experimental: as §4, §5, §3

[7] = target: T5, individually expressed N half of ABCR containing 1D4 epitope tag (N*) (Homo sapiens, UniProt P78363); assay: as above; assay type: biochemical; conditions: individually expressed in COS-1 cells, purified on Rho1D4-Sepharose
T5 construct: N-half (amino acids 1-1325) and C-half (amino acids 1326-2273) of ABCR; made in house; host or cells: COS-1
T5 sequence (P78363 1-1325): T2 sequence (P78363 1-1325)
Experimental: as §4, §5, §3

T3 sequence (P78363 whole entry): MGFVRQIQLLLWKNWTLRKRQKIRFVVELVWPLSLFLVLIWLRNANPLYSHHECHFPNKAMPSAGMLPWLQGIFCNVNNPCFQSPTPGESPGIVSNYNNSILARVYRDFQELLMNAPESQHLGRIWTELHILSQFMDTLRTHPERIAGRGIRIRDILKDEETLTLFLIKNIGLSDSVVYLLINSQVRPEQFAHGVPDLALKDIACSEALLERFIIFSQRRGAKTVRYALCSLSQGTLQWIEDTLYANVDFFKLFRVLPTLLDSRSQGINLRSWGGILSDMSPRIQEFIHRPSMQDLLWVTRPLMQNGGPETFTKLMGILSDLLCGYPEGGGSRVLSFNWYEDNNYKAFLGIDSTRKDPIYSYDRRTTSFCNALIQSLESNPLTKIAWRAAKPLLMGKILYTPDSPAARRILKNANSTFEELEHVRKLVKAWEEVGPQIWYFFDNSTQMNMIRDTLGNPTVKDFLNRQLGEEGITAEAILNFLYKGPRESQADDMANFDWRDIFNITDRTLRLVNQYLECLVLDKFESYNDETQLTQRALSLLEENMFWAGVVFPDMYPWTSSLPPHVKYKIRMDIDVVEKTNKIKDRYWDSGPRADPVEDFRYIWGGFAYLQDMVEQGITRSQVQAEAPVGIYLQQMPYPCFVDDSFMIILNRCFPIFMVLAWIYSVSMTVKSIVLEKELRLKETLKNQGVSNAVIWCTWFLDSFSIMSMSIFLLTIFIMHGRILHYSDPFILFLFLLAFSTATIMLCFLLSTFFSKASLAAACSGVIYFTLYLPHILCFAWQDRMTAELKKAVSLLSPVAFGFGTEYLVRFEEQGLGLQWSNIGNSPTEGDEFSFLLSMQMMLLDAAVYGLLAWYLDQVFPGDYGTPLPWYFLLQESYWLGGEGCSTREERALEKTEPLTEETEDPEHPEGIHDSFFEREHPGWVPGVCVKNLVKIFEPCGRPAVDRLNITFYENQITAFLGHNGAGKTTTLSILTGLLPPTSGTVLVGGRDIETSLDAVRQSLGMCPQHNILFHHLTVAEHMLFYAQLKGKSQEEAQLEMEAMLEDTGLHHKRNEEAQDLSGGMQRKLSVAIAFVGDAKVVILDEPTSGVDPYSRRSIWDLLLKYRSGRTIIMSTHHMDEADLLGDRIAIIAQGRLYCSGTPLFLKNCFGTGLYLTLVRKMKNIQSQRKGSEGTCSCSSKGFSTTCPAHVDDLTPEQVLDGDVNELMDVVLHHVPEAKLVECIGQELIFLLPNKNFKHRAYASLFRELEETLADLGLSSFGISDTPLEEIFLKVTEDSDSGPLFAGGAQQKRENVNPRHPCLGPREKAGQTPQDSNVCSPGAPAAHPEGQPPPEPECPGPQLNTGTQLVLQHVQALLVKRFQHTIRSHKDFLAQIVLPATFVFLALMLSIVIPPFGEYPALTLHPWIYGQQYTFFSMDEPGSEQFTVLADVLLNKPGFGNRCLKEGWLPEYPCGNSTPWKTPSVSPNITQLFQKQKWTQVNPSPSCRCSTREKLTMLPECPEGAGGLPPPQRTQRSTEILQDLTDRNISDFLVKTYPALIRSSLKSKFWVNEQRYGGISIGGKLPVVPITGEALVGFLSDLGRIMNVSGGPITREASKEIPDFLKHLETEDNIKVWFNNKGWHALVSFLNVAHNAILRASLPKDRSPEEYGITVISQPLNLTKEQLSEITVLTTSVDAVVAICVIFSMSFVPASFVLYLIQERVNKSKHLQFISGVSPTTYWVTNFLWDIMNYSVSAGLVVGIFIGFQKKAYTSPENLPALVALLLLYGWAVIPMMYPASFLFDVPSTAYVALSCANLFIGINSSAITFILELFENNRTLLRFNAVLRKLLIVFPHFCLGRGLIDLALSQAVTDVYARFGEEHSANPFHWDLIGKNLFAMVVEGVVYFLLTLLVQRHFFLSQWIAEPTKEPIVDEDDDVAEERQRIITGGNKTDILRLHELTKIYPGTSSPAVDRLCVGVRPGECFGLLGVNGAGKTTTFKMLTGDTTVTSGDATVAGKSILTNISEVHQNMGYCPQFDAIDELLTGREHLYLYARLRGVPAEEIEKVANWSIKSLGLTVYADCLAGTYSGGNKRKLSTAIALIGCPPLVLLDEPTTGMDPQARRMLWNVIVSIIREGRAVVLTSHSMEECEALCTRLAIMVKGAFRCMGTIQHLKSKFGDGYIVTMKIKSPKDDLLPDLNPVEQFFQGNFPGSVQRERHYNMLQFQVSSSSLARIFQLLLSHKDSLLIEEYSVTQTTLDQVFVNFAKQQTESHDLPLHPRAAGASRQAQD
T1 sequence (P78363 whole entry): as above

- effect on 8-azido-ATP photoaffinity labeling [1]: essentially abolished
- effect on 8-azido-ATP photoaffinity labeling [2]: essentially abolished
Compound: Nc1ncnc2c1ncn2[C@@H]1O[C@H](COP(=O)(O)OP(=O)(O)OP(=O)(O)O)[C@@H](O)[C@H]1O [ATP]

- effect on 8-azido ATP/ADP trapping [3]: had no effect
Compound: Nc1ncnc2c1ncn2[C@@H]1O[C@H](COP(=O)(O)OP(=O)([O-])OP(=O)([O-])O)[C@@H](O)[C@H]1O.[Mg+2] [MgATP]

- stimulation of ATPase activity by all-trans retinal [4]: 1-2 fold
- stimulation of ATPase activity by all-trans retinal [5]: 1-2 fold
- stimulation of ATPase activity by retinal [6]: not stimulated
- stimulation of ATPase activity by retinal [7]: not stimulated
Compound: CC1=C(/C=C/C(C)=C/C=C/C(C)=C/C=O)C(C)(C)CCC1 [all-trans retinal]
- effect on 8-azido ATP/ADP trapping [3]: not dependent on sodium orthovanadate or influenced

- effect on 8-azido ATP/ADP trapping [3]: not dependent
Compound: [Na+].[Na+].[Na+].[O]=[V]([O-])([O-])[O-] [sodium orthovanadate]
